Test results published in patent US20090074815A1, “Immunomodulator Compounds as Vaccine Enhancers” (SCICLONE PHARMACEUTICALS, INC., priority 2005, published 2009).
Where two headings read alike, the source gives them in different places.

Experiments:
[1] = test system: IFN-γ production by ConA-stimulated splenocytes; experiment: IFN-γ production by ConA-stimulated splenocytes (EIA); format: in vivo, mice
[2] = test system: IL-12R40 production by OvA-stimulated splenocytes; experiment: OvA-stimulated production of IL-12R40 by splenocytes of OvA-immunized mice; conditions: for activity at 0.0001 mg/kg / activity at 0.001 mg/kg / activity at 0.01 mg/kg: Mus musculus, Splenocyte, po, read-out: Production of IL-12R40 by splenocytes, % (% of control), OvA/FA; for Production of IL-12R40 by splenocytes / Production of IL-12R40 by splenocytes, % (% of control): OvA/FA
Protocol: The OvA was administered subcutaneously to the crest in a volume of 200 μl. Mice were immunized on day 1 with OvA in complete Freund's adjuvant (CFA; Sigma) and on day 15 with the antigen in incomplete Freund's adjuvant (IFA; Sigma). The immune response was analyzed on day 29. Mice were also immunized with 10 μg/mouse of OvA using Alum as an adjuvant.
Thymuses and spleens from mice of each treatment group were pooled, and then minced with scissors. The minced tissues were suspended in sterile PBS to form cell suspensions, filtered through a double gauze layer and centrifuged. Cells were washed twice with PBS, re-suspended in RPMI-1640 (Sigma) with 2.0 mM of L-glutamine, 50 μM of mercaptoethanol, and 10 μg/ml of gentamycin (complete medium); and cell counts were made. (The splenocyte suspension was washed with a 0.86% solution of NH4Cl to pre-lyse erthrocytes.)
Assessment of Mitogen- and Antigen-Induced Production of Cytokines: Thymic cells (1×10^6/well) in complete medium with 2% FCS were stimulated with ConA (0, 1, and 2 μg/ml). Splenocytes (1×10^6/well) in complete medium with 5% FCS were stimulated with ConA (0, 1, and 5 μg/ml) and with OvA (0-100 μg/ml). […] Supernatants from OvA-stimulated cultures were collected after 72 hours. Supernatants from both cultures were frozen, and kept at 20° C. Concentrations of IL-2, IL-4, IL-10, IL-12R40 and IFNγ in the supernatants were determined by solid-phase EIA with EIA Expansion Kits, available from BD Biosciences (formerly Pharmingen), in accordance with the manufacturer's instructions.

[3] = 0.1 μg/kg per os, OvA 100 μg/ml
[4] = 1.0 μg/kg per os, OvA 100 μg/ml
[5] = 10.0 μg/kg per os, OvA 10 μg/ml
[6] = 10.0 μg/kg per os, OvA 25 μg/ml
[7] = 10.0 μg/kg per os, OvA 50 μg/ml
[8] = 10.0 μg/kg per os, OvA 100 μg/ml

N[C@H](CCC(=O)N[C@@H](Cc1c[nH]c2ccccc12)C(=O)O)C(=O)O [SCV-07, γ-D-glutamyl-L-tryptophan]
IFN-γ ([1]; ConA 5 μg/ml, 0.1 μg/kg per os): 65692 pg/mL
IFN-γ ([1]; ConA 5 μg/ml, 1.0 μg/kg i/p): 142155 pg/mL
IFN-γ ([1]; ConA 5 μg/ml, 1.0 μg/kg per os): 47683 pg/mL
IFN-γ ([1]; ConA 5 μg/ml, 10.0 μg/kg per os): 66185 pg/mL
IFN-γ ([1]; ConA 5 μg/ml, 100.0 μg/kg per os): 43670 pg/mL
IFN-γ ([1]; Spontaneous, 0.01 μg/kg per os): 0 pg/mL
IFN-γ ([1]; Spontaneous, 0.1 μg/kg i/p): 1393 pg/mL
IFN-γ ([1]; Spontaneous, 0.1 μg/kg per os): 0 pg/mL
IFN-γ ([1]; Spontaneous, 1.0 μg/kg i/p): 1738 pg/mL
IFN-γ ([1]; Spontaneous, 1.0 μg/kg per os): 1629 pg/mL
IFN-γ ([1]; Spontaneous, 10.0 μg/kg per os): 0 pg/mL
IFN-γ ([1]; Spontaneous, 100.0 μg/kg per os): 0 pg/mL
activity at 0.0001 mg/kg ([2]; 0.1 μg/kg per os, OvA 0 μg/ml): 100%
activity at 0.0001 mg/kg ([2]; 0.1 μg/kg per os, OvA 10 μg/ml): 36.6%
activity at 0.0001 mg/kg ([2]; 0.1 μg/kg per os, OvA 25 μg/ml): 24.3%
activity at 0.0001 mg/kg ([2]; 0.1 μg/kg per os, OvA 50 μg/ml): 20.4%
activity at 0.0001 mg/kg [2, 3]: 18.9%
activity at 0.001 mg/kg ([2]; 1.0 μg/kg per os, OvA 0 μg/ml): 100%
activity at 0.001 mg/kg ([2]; 1.0 μg/kg per os, OvA 10 μg/ml): 26.9%
activity at 0.001 mg/kg ([2]; 1.0 μg/kg per os, OvA 25 μg/ml): 23.8%
activity at 0.001 mg/kg ([2]; 1.0 μg/kg per os, OvA 50 μg/ml): 26.5%
activity at 0.001 mg/kg [2, 4]: 25.1%
activity at 0.01 mg/kg ([2]; 10.0 μg/kg per os, OvA 0 μg/ml): 100%
activity at 0.01 mg/kg [2, 5]: 52.9%
activity at 0.01 mg/kg [2, 6]: 40.7%
activity at 0.01 mg/kg [2, 7]: 32.4%
activity at 0.01 mg/kg [2, 8]: 31.9%
OvA-induced production of IL-12r40 by splenocytes versus control ([2]; OvA/Alum, per os or i/p, data not shown): No significant differences
Production of IL-12R40 by splenocytes ([2]; 0.1 μg/kg i/p, OvA 0 μg/ml): 1285.7 pg/mL
Production of IL-12R40 by splenocytes ([2]; 0.1 μg/kg i/p, OvA 10 μg/ml): 492.4 pg/mL
Production of IL-12R40 by splenocytes, % (% of control) ([2]; 0.1 μg/kg i/p, OvA 10 μg/ml): 38.3%
Production of IL-12R40 by splenocytes ([2]; 0.1 μg/kg i/p, OvA 25 μg/ml): 499.6 pg/mL
Production of IL-12R40 by splenocytes, % (% of control) ([2]; 0.1 μg/kg i/p, OvA 25 μg/ml): 38.9%
Production of IL-12R40 by splenocytes ([2]; 0.1 μg/kg i/p, OvA 50 μg/ml): 420.8 pg/mL
Production of IL-12R40 by splenocytes, % (% of control) ([2]; 0.1 μg/kg i/p, OvA 50 μg/ml): 32.7%
Production of IL-12R40 by splenocytes ([2]; 0.1 μg/kg i/p, OvA 100 μg/ml): 522.8 pg/mL
Production of IL-12R40 by splenocytes ([2]; 0.1 μg/kg per os, OvA 0 μg/ml): 1307.6 pg/mL
Production of IL-12R40 by splenocytes ([2]; 0.1 μg/kg per os, OvA 10 μg/ml): 478.1 pg/mL
Production of IL-12R40 by splenocytes ([2]; 0.1 μg/kg per os, OvA 25 μg/ml): 317.4 pg/mL
Production of IL-12R40 by splenocytes ([2]; 0.1 μg/kg per os, OvA 50 μg/ml): 267.0 pg/mL
Production of IL-12R40 by splenocytes [2, 3]: 246.5 pg/mL
Production of IL-12R40 by splenocytes ([2]; 1.0 μg/kg i/p, OvA 0 μg/ml): 1524.0 pg/mL
Production of IL-12R40 by splenocytes ([2]; 1.0 μg/kg i/p, OvA 10 μg/ml): 933.8 pg/mL
Production of IL-12R40 by splenocytes, % (% of control) ([2]; 1.0 μg/kg i/p, OvA 10 μg/ml): 61.3%
Production of IL-12R40 by splenocytes ([2]; 1.0 μg/kg i/p, OvA 25 μg/ml): 739.7 pg/mL
Production of IL-12R40 by splenocytes, % (% of control) ([2]; 1.0 μg/kg i/p, OvA 25 μg/ml): 48.5%
Production of IL-12R40 by splenocytes ([2]; 1.0 μg/kg i/p, OvA 50 μg/ml): 630.3 pg/mL
Production of IL-12R40 by splenocytes, % (% of control) ([2]; 1.0 μg/kg i/p, OvA 50 μg/ml): 41.4%
Production of IL-12R40 by splenocytes ([2]; 1.0 μg/kg i/p, OvA 100 μg/ml): 616.4 pg/mL
Production of IL-12R40 by splenocytes, % (% of control) ([2]; 1.0 μg/kg i/p, OvA 100 μg/ml): 40.4%
Production of IL-12R40 by splenocytes ([2]; 1.0 μg/kg per os, OvA 0 μg/ml): 1362.3 pg/mL
Production of IL-12R40 by splenocytes ([2]; 1.0 μg/kg per os, OvA 10 μg/ml): 366.3 pg/mL
Production of IL-12R40 by splenocytes ([2]; 1.0 μg/kg per os, OvA 25 μg/ml): 324.5 pg/mL
Production of IL-12R40 by splenocytes ([2]; 1.0 μg/kg per os, OvA 50 μg/ml): 360.8 pg/mL
Production of IL-12R40 by splenocytes [2, 4]: 342.4 pg/mL
Production of IL-12R40 by splenocytes ([2]; 10.0 μg/kg per os, OvA 0 μg/ml): 1455.1 pg/mL
Production of IL-12R40 by splenocytes [2, 5]: 769.3 pg/mL
Production of IL-12R40 by splenocytes [2, 6]: 592 pg/mL
Production of IL-12R40 by splenocytes [2, 7]: 471.9 pg/mL
Production of IL-12R40 by splenocytes [2, 8]: 464.8 pg/mL
